# From US20110020931A1, “PROLIFERATION PROMOTING AGENT FOR NEURAL STEM CELLS” (KYOWA HAKKO KIRIN CO., LTD., priority 2008, published 2011)
# Legend:
# Format in all cases: cell-based
# [1] = test system: Rat adult neural stem cell line ANSC-7 cells; test: Test Example 1: Proliferation promoting activity on neural stem cells (1), Hoechst 33342 nucleus staining fluorescence; settings: 96 hours culture, nucleus-stain fluorescence, read-out: proliferation promoting activity (relative value, negative control = 100%); for activity at 0.32 µM: 0.32 μmol/L; for activity at 1 µM: 1.0 μmol/L
# Description: Rat adult neural stem cell line ANSC-7 cells prepared by the method described in the following Reference Example 1 were suspended in DMEM/F12 medium (manufactured by Invitrogen) supplemented with N-2 additives [5 μg/mL insulin (manufactured by Sigma), 100 μg/mL bovine apotransferrin (manufactured by Sigma), 6.3 ng/mL progesterone (manufactured by Sigma), 1.6 μg/mL putrescine (manufactured by Sigma) and 5.2 ng/mL sodium selenate (manufactured by Sigma)] and an antibiotics mixed liquid [0.05 U/mL penicillin and 0.05 μg/mL streptomycin (manufactured by Invitrogen)] (to be referred to as assay medium hereinafter), at a density of 1.7×10^5 cells/mL; inoculated at 0.1 mL in a 96 well plate (manufactured by Costar) of which surface was processed with polyornithine and laminin; and cultured overnight at 37° C. under an atmosphere of 5% CO2. Thereafter, 50 μl of the culture supernatant was removed, and 50 μl of a test compound which was serially diluted with the assay medium to 2 times of the final concentration or DMSO (negative control) was added to each well. After the culturing for 96 hours, 50 μl of the culture supernatant was removed, and 50 μl of a 15% neutral buffered formalin liquid (manufactured by Wako Pure Chemical Industries, Ltd.) cooled to be 4° C. was added to each well and allowed to stand for 1 hour. Thereafter, by washing twice using PBS containing 0.3% Triton X-100 (manufactured by Nacalai Tesque) (hereinafter TBST), 50 μl of Hoechst 33342 (manufactured by Nacalai Tesque) adjusted to 3.3 μmol/L with 5% skim milk solution diluted with PBS containing 0.5% Triton X-100 was added to each well and the nucleus was stained overnight at 4° C. in the dark. After washing twice with 100 μl/well of TBST and then once with PBS and subsequently soaking in 100 μl/well of PBS, fluorescence intensity of the nucleus-stained cells was measured using a fluorometer FDSS 6000 (Hamamatsu Photonics K.K.). By regarding the measured value of well to which the cells were not inoculated as 0%, and the measured value of negative control as 100%, relative values in the test compound addition group were calculated.
# (§1) After putting a 7-week-old Sprague Dawley Rat to sleep by ether anesthesia and subsequent decapitation, the skull was cut open from the parietal region to extract the brain. Under a microscope, tissues including circumventricular region were isolated from the extracted brain by using ophthalmic scissors and tweezers. The tissues including circumventricular region were cut into fragments of about 1 mm^3 using ophthalmic scissors and scalpels and then subjected to 30 minutes of digestion reaction at 37° C. in 5 mL of Hanks' buffer containing 2.5 U/mL of papain, 250 U/mL of DNase (all manufactured by Worthington, Freehold, N.J.) and 1 U/mL of a neutral protease (Dispase, manufactured by Boehringer-Mannheim Corp.) (HBSS buffer, manufactured by Invitrogen). The mixture of cells and tissues obtained by the reaction was washed three times with DMEM (manufactured by Invitrogen) containing 10% fetal bovine serum (manufactured by Hyclone) and then dissolved in the DMEM containing 10% fetal bovine serum, followed by removing the undigested materials using a nylon mesh of 10 μm.
# (§2) The thus obtained cells crude extract was cultured overnight on a culture dish of 10 cm, in an incubator of 37° C. using DMEM/F12 medium (manufactured by Invitrogen) containing 10% fetal bovine serum. On the next day, the medium was replaced with DMEM/F12 containing 1% of N-2 additives (manufactured by Invitrogen) and 20 ng/mL of FGF 2 (manufactured by Pepro Tech) and the culturing was started. Once in 3 days, half of the medium was replaced with new DMEM/F12 containing 1% of N-2 additives and 20 ng/mL of FGF 2 and the culturing was continued.
# When a small colony consisted of small cells was formed, it was treated with 1% trypsin for 30 seconds to 1 minute, and the cells detached were harvested. […]
# [2] = test system: Rat adult neural stem cell line ANSC-7 cells; test: Test Example 2: Proliferation promoting activity on neural stem cells (2), viable cell counting reagent SF absorbance; settings: 96 hours culture, absorbance 490 nm, read-out: proliferation promoting activity (relative value, negative control = 100%); for activity at 1 µM: 1.0 μmol/L; for activity at 0.32 µM: 0.32 μmol/L
# Description: (§3) Rat adult neural tem cell line ANSC-7 cells prepared by the method described in the following Reference Example 1 were suspended in the assay medium at a density of 1.7×10^5 cells/mL; inoculated in 0.1 mL portion in a 96 well plate (manufactured by Costar) of which surface was processed with polyornithine and laminin; and cultured overnight at 37° C. under an atmosphere of 5% CO2. Thereafter, 50 μl of the culture supernatant was removed, and 50 μl of a test compound which was serially diluted with the assay medium to 2 times of the final concentration or DMSO (negative control) was added to each well. After the culturing for 96 hours, 10 μl per well of a viable cell counting reagent SF (manufactured by Nacalai Tesque) was added to the culture. After culturing at 37° C. for 3 hours in a 5% CO2 incubator and subsequent stirring for 1 minute, absorbance at 490 nm (control wavelength 655 nm) was measured using a microplate spectrophotometer Emax (manufactured by Molecular Device). By regarding the measured value of well to which the cells were not inoculated as 0%, and the measured value of negative control as 100%, relative values in the test compound addition group were calculated.
# as §1, §2
# (§4) When a small colony consisted of small cells was formed, it was treated with 1% trypsin for 30 seconds to 1 minute, and the cells detached were harvested. The harvested cells were inoculated on a multiple well culture dish (manufactured by Fisher Scientific) which had been coated at room temperature overnight using 10 μg/mL of polyornithine (manufactured by Sigma) and at 37° C. overnight using 5 μg/mL of mouse EHS tumor-derived laminin (Becton Dickinson), and the culturing was continued.
# (§5) By continuing the above-mentioned culturing, small cells having small protrusion and thickness were concentrated. The cells were used as adult neural stem cells in the above-mentioned tests (Test Examples 1 to 3).
# [3] = test system: Rat adult neural stem cell line ANSC-7 cells; test: Test Example 3: Proliferation promoting activity on neural stem cells (3), same manner as Test Example 2; settings: 96 h; for activity at 3.2 µM: 3.2 μmol/L; for activity at 0.01 µM: 10 nmol/L; for activity at 0.001 µM: 1 nmol/L
# Description: as §3
# Each of the tests was carried out in the same manner as in Test Example 2.
# as §1, §2, §4, §5
# [4] = same manner as Test Example 2, read-out: proliferation promoting activity (relative value, negative control = 100%)
smiles,measurement,setting,value
CC(C)C(C)CCC1(C)OC2OC3CC1C21CCC2C4(C)CCC(O)CC4CC4OC42C31 (stereo not shown) [Compound A3],activity at 0.32 µM,[1],≥ 160%
C=C(CCC(C)C1CCC2C3=C(CCC21C)C1(C)CCC(O)CC1CC3=O)C(C)C (stereo not shown) [Compound F],activity at 1 µM,[2],≥ 130%
same,activity at 1 µM,[1],≥ 140%
C=C(CCC1(C)OC2OC3CC1C21CCC2C4(C)CCC(OC(C)=O)CC4CC4OC42C31)C(C)C (stereo not shown) [Compound A1],activity at 0.32 µM,[1],≥ 160%
CC(C)C(C)/C=C/C(C)C1CCC2/C(=C/C(=O)OC3CCC(C)(O)C(=O)C3)C(=O)CCC21C (stereo not shown) [Compound BB],activity at 3.2 µM,[3]; [4],120%
C=C(CCC1(C)OC2OC3CC1C21CCC2C(=CCC4CC(O)CCC42C)C31)C(C)C (stereo not shown) [Compound B],activity at 1 µM,[1],≥ 140%
C=C(CCC(C)(O)C1CC(O)C2=C3C(O)CC4CC(O)CCC4(C)C3CCC21C)C(C)C (stereo not shown) [Compound Y],activity at 3.2 µM,[3]; [4],120%
COC(C)(C)/C=C/c1cccc2c3c([nH]c12)C(C)(C)C1CC24CCCN2CC1(C3)NC4=O (stereo not shown) [Compound M],activity at 0.32 µM,"[3]; read-out: proliferation promoting activity (relative value, negative control = 100%)",120%
C=C(CCC1(C)OC2OC3CC1C21CCC2C4(C)CCC(=O)CC4CC4OC42C31)C(C)C (stereo not shown) [Compound A2],activity at 0.32 µM,[1],≥ 160%
C=C(CCC1(C)OC2OC3CC1C21CCC2C4(C)CCC(O)CC4CC4OC42C31)C(C)C (stereo not shown) [Compound A],activity at 0.32 µM,[2],≥ 130%
same,activity at 0.32 µM,[1],≥ 150%
C=C(CCC(C)(O)C1CC(O)C2C3=CCC4CC(O)CCC4(C)C3CCC21C)C(C)C (stereo not shown) [Compound J],activity at 3.2 µM,[2]; 3.2 μmol/L,≥ 125%
CC(C)C(C)/C=C/C(C)C1CCC2/C(=C/C(=O)OC3(C)CCC(O)CC3=O)C(=O)CCC21C (stereo not shown) [Compound AA],activity at 3.2 µM,[3]; [4],120%
C=C(/C=C/C(C)C1CCC2C3C(=O)CC4CC(O)CCC4(C)C3CCC12C)C(C)C (stereo not shown) [Compound X],activity at 0.01 µM,[3]; [4],≥ 120%
C=C(CCC(C)C1CCC2=C3OC(=O)C4CC(O)CCC4(C)C3CCC21C)C(C)C (stereo not shown) [Compound U],activity at 0.001 µM,[3]; [4],≥ 120%
C=C(CCC(C)(O)C1CCC2C3=CCC4CC(O)CCC4(C)C3CCC21C)C(C)C (stereo not shown) [Compound C],activity at 0.32 µM,[2],≥ 130%
same,activity at 0.32 µM,[1],≥ 150%
C=C(CCC1(C)OC2OC3CC1C21CCC2C(=CC=C4CC(O)CCC42C)C31)C(C)C (stereo not shown) [Compound L],activity at 0.32 µM,[2],≥ 130%
C=C(CCC(C)C1CC=C2C3=C(CCC21C)C1(C)CCC(O)CC1C(=O)O3)C(C)C (stereo not shown) [Compound V],activity at 0.001 µM,[3]; [4],≥ 120%
C=C(CCC1(C)OC(=O)C23CCC4C5(C)CCC(O)CC5CC5OC54C2C(O)CC13)C(C)C (stereo not shown) [Compound H],activity at 1 µM,[2],≥ 130%
C=C(CCC(C)C1CCC2C3C(=O)CC4CC(O)CCC4(C)C3CCC12C)C(C)C (stereo not shown) [Compound W],activity at 0.01 µM,[3]; [4],≥ 120%
C=C(CCC(=C)C1CC(O)C2C3=CCC4CC(=O)CCC4(C)C3CCC12C)C(C)C (stereo not shown) [Compound K],activity at 1 µM,[2],≥ 130%
CC(C)=CC(=O)c1cccc2c3c([nH]c12)C(C)(C)C1CC24CCCN2CC1(C3)NC4=O (stereo not shown) [Compound N],activity at 1 µM,"[3]; 1 μmol/L, same manner as Test Example 2, read-out: proliferation promoting activity (relative value, negative control = 100%)",120%
C=C(CCC(C)C1CCC2C3=C(CCC21C)C1(C)CCC(O)CC1C(=O)O3)C(C)C (stereo not shown) [Compound E],activity at 0.32 µM,[2],≥ 130%
same,activity at 0.32 µM,[1],≥ 150%
C=C(CCC(=C)C1CC(O)C2C3=CCC4CC(O)CCC4(C)C3CCC12C)C(C)C (stereo not shown) [Compound D],activity at 1 µM,[2],≥ 130%
same,activity at 1 µM,[1],≥ 140%
C=C(CCC1(C)OC2OC3CC1C21CCC2C4(C)CCC(O)CC4CCC2(O)C31)C(C)C (stereo not shown) [Compound A5],activity at 0.32 µM,[1],≥ 160%
